The test system of this assay is ACEI-induced cough. The note with it: for Change of cough score, treatment versus observation period (in words): Wilcoxon's signed rank sum test, iron taking group; for Degree of cough, mean daily cough score: 10 patients on ACEI, observation period 6.14 ± 1.41. The procedure: The research pertaining to the ACEI-induced cough depressant effect by the iron was carried out with nineteen patients taking ACEI. These subjects were patients who developed cough as a result of the side effect caused by taking ACEI. The experiment period was divided into the observation period and the treatment period. 10 of the patients took iron and 9 of the patients took placebo.
The effect of the cough depressant containing iron of the present invention was tested. The cough depressant composition used in the test was ferrous sulphate. Anemia medicine sold as Feroba (trademark), whose ferrous sulphate was removed, was used as the placebo. The 19 tested patients had developed persistent dry cough while taking ACEI for various reasons. They include 6 men and 13 women, whose mean age was 59.9±12.2 years. The patients were divided into groups; the treatment group, which comprised 10 patients taking iron, and the control group, comprising 9 patients taking placebo. The characteristics of the patients are denoted in Table 1. All the patients gave informed consent, and the test was approved by the ethical committee of the Samsung Medical Center and Samsung Biomedical Research Center, Seoul, Korea.
ACEI-induced cough was defined as dry cough that occurred with ACEI use that subsided in seven days after discontinuation of the drug, and reappeared within 48 hours after the re-introduction of the drug and with no abnormality in the lungs and the bronchi.
19 patients completed a cough diary during a 2-week observation period while taking ACEI only. […] Each day was divided into two 12-hour periods. The daytime period began at 8 A.M., and the nighttime period, vice versa. Patients recorded the cough score for each period.
At the end of the observation period, blood samples were drawn from the patient for evaluation of hemoglobin level, hematocrit, iron concentration, total iron binding capacity (“TIBC”), and ferritin concentration. After sampling, they were randomized to either an iron taking group or placebo taking group. 256 mg of ferrous sulfate (of which 80 mg is ferrate) was daily administered to the iron taking group. During the four weeks of the treatment period, subjects were asked to fill in a cough diary in the identical way that they completed the diary in the observation period. After four weeks of the treatment period, blood sampling was repeated for the same evaluation (hemoglobin level, hematocrit, iron concentration, total iron binding capacity (“TIBC”) and ferritin concentration) that was performed in the initiation of the treatment period.
Cough scores from the last week of the observation period and the last week of the treatment period were compared and evaluated. The total sum of the cough scores were calculated from cough scores during the daytime and the nighttime recorded from the range of 0 to 4 for the last week of the observation period and the treatment period, and mean daily cough scores were calculated by dividing the total amount by days. Also, the cough score during the daytime and the nighttime was compared separately. […] The two groups were compared using Wilcoxon's signed rank sum test.

Where two headings read alike, the source gives them in different places.

With `O=S(=O)([O-])[O-].[Fe+2]` [Iron, ferrous sulphate], the “Change of cough score, treatment versus observation period (in words)” value (listed as ferrous sulphate) was “significantly reduced” and the “Change of cough score, treatment versus observation period (in words)” value (listed as iron) is given as “significant reduction of dry cough”. In addition, the “Degree of cough, mean daily cough score” value (last week of 4-week treatment period, 256 mg ferrous sulfate daily, mean ± SD) turned out to be 3.39 ± 2.20 score and the “Degree of cough, mean daily cough score” value (last week of 4-week treatment period, 256 mg ferrous sulfate daily, mean ± SD, listed as iron) is listed as 3.39±2.20 score. Besides, the “Degree of cough, daytime cough score” value (last week of 4-week treatment period, 256 mg ferrous sulfate daily, mean ± SD, observation period 2.86 ± 0.86) is reported as 1.51 ± 1.00 score. The “Degree of cough, nighttime cough score” value (last week of 4-week treatment period, 256 mg ferrous sulfate daily, mean ± SD, observation period 3.29 ± 0.73) was 1.87 ± 1.24 score. Also, the “Number of patients showing almost complete abolishment of cough” value (of 10 patients in the iron taking group) is given as “three”. For the same compound, for the setting “of 10 patients who took iron, treatment versus observation period”, the “Number of patients showing reduction in cough (decrease in cough score)” value came out at 9 patients.

The values are drawn from patent US7320804B2, “Cough depressant composition containing iron for angiotensin-converting enzyme inhibitor inducing cough” (Samsung Life Public Welfare Foundation Samsund Medical …, priority 2000, dated 2008).
